Results as given in patent US20240076347A1, “METHODS FOR PREVENTING FUNGAL INFECTIONS” (Cidara Therapeutics, Inc., priority 2016, published 2024).
Values joined by “and” are separate entries in the source; they are usually repeats but may differ in a detail not shown here. Identical values can stand only once. Numbered stars: 1 amine (or outer) side, 2 acyl side, 3 side chain; on linkers, the order of the positions; unused ones are H or OH. Bridge positions count the residues as written; N and C are the ends. Square brackets hold non-standard residues; d marks the D form. Peptide text beside a SMILES is read from it. * marks the point of attachment. ξ: configuration not given here. Orn(4R-OH,5R-OCH2CH2NMe3+) = C[N+](C)(C)CCO[C@@H](N[*:3])[C@H](O)C[C@H](N[*:1])C(=O)[*:2]; pTerphenylCO(4''-OnC5H11) = CCCCCOc1ccc(-c2ccc(-c3ccc(C(=O)*)cc3)cc2)cc1; hTyr(3S-OH,4S-OH) = N[C@H](C(=O)O)[C@H](O)[C@@H](O)c1ccc(O)cc1; X1 = C[C@H]1CN([*:1])C(C(=O)[*:2])C1O; Hyp = O=C(O)[C@@H]1C[C@@H](O)CN1; ξT = CC(O)C(N)C(=O)O

Tests used:
[1] = system: Candida albicans ATCC SC5314; assay: MIC used for free drug plasma concentration over MIC, candidiasis model; format: cell-based
[2] = system: C. albicans SC-5314 biofilms; assay: Adhesion phase biofilms (prevention) on silicone elastomer discs; format: cell-based, Candida albicans
Method: Biofilms were formed on silicone elastomer (SE) discs using a catheter-associated-biofilm model (Chandra et al., Nature Protocols 3:1909, 2008; Chandra et al., J. […] Chandra et al., J. Dental Research 80: 903, 2001). For evaluation of activity against adhesion phase biofilms (prevention), Candida cells were adhered to catheter discs for 90 min. […] Discs incubated with fluconazole or media alone were used as controls in all experiments. […] Chandra et al., J. […] Chandra et al., J. Dental Research 80: 903, 2001). Following incubation with drugs, discs were transferred to fresh plates containing phosphate buffered saline with XTT and menadione, incubated for 3 h at 37° C. and optical density was read at 492 nm. Separate batches of biofilms were stained with fluorescent dyes (FUN1™, CONA) and observed under Confocal Scanning Laser Microscope (CSLM) to evaluate biofilm architecture and thickness (Chandra et al., Nature Protocols 3:1909, 2008; Chandra et al., J. […] Statistical analyses for all data were performed using GraphPad Prism 6 software. Drug treated groups were compared to control untreated groups using unpaired t-tests.

C. albicans = assay: Neutropenic murine disseminated candidiasis model, PK/PD target determination; format: in vivo, Candida albicans
Method: Infection model. A neutropenic, murine, disseminated candidiasis model was used for the treatment studies. The mice were rendered neutropenic (polymorphonuclear cell count, <100/mm3) by injecting 150 mg/kg of cyclophosphamide (Mead Johnson Pharmaceuticals, Evansville, IN) subcutaneously 4 days before infection, 100 mg/kg of cyclophosphamide 1 day before infection, and additional cyclophosphamide doses (100 mg/kg) on Day 2 and Day 4 after infection to ensure neutropenia throughout the 168 h (7 d) study period. Three mice were included in each treatment and control group.
The organisms were subcultured on SDA plates 24 h prior to infection. The inoculum was prepared by placing 3 to 5 colonies into 5 ml of sterile pyrogen-free 0.15 M NaCl warmed to 35° C. The final inoculum was adjusted to a 0.6 transmittance at 530 nm. The fungal count of the inoculum determined by viable counts on SDA was 6.1±0.2 log10 CFU/ml.
Disseminated infection with the Candida strains was achieved by injection of 0.1 ml of the inoculum via the lateral tail vein 2 h prior to the start of antifungal therapy. At the end of the study period, the animals were sacrificed by CO2 asphyxiation. The kidneys of each mouse were aseptically removed and placed in 0.15 M NaCl at 4° C. The kidneys were homogenized and serially diluted 1:10, and the aliquots were plated onto SDA for viable fungal colony counts after incubation for 24 h at 35° C. The lower limit of detection was 100 CFU/ml. The results are expressed as the mean CFU/kidney for three mice.
Treatment efficacy and pharmacodynamic target determination of CD101. Neutropenic mice were infected with one of 10 Candida strains as described above. […] Five dose levels that varied from 0.25 to 64 mg/kg were administered once in a 0.2-ml volume by IP route for the 168 h study period. Due to enhanced effect against single isolate, additional studies at 0.0156 and 0.0625 mg/kg was examined for C. glabrata 5592. Groups of three mice were used for each dosing regimen and control group. At the end of the treatment period (168 h), the mice were euthanized, and their kidneys were immediately processed for CFU determination as described above.
Data analysis. A sigmoid dose-effect (Hill) model was used to measure the in vivo potency of CD101. The efficacy endpoints included the dose level required to produce a 24 h net static effect (no change in organism burden compared to that at the start of therapy) and the dose required to achieve a 1-log10 reduction in colony counts (relative to the burden at the start of therapy), when achieved. The maximum response (Emax) was measured as the difference in the number of CFU/kidney relative to that of the untreated control animals. The doses associated with the stasis and 1-log10 endpoint for each strain was calculated using the equation: log10 D=[log10 (E/(Emax−E))/N]+log10 ED50, where D is the drug dose, E is the control growth in untreated animals, Emax is the maximal effect, Nis the slope of the dose-response relationship, and ED50 is the dose needed to achieve 50% of the maximal effect. The associated AUC/MIC targets were then calculated for each strain. […] The calculations were performed using both total and free drug concentrations. The coefficient of determination (R^2) was used to estimate the variance that might be due to regression with the PK/PD index. Kruskal-Wallis one-way analysis of variance (ANOVA) was used to determine if the differences in PK/PD targets were significant between the species.

[3] = system: A. fumigatus clinical isolates; conditions: SENTRY surveillance (Pfaller, et al 2017); cited from earlier work
[4] = system: Candida albicans clinical isolates; conditions: SENTRY surveillance (Pfaller, et al 2017); cited from earlier work
[5] = Median of 4 C. albicans strains

SMILES: CCCCCOc1ccc(-c2ccc(-c3ccc(C(=O)N[C@H]4C[C@@H](O)[C@@H](OCC[N+](C)(C)C)NC(=O)C5C(O)[C@@H](C)CN5C(=O)[C@H]([C@@H](C)O)NC(=O)[C@H]([C@H](O)[C@@H](O)c5ccc(O)cc5)NC(=O)[C@@H]5C[C@@H](O)CN5C(=O)C(C(C)O)NC4=O)cc3)cc2)cc1 (stereo partly drawn) [CD101] ({pTerphenylCO(4''-OnC5H11)}-[Orn(4R-OH,5R-OCH2CH2NMe3+)][ξT][Hyp][hTyr(3S-OH,4S-OH)]T[X1]; lactam 1-C)
- MIC [1]: 0.03 µg/mL
- biofilm architecture (CSLM) ([2]; 0.25 and 1 μg/ml): only remnants of adhered cells, and no biofilm maturation
- biofilm metabolic activity (XTT) ([2]; 0.25 and 1 μg/ml, 24 h, vs untreated, P<0.05): significantly less biofilms
- thickness of biofilms ([2]; CD101 exposed, untreated control 36 μm, P<0.05): 4 μm
- 1 log kill 24 h Ave Free drug AUC/MIC (C. albicans; 98-17): 3.92
- 1 log kill free drug AUC0-168 h/MIC (C. albicans; 98-17): 27.47
- 1 log kill total drug AUC0-168 h/MIC (C. albicans; 98-17): 3433.40
- Stasis 24 h Ave free drug AUC/MIC (C. albicans; 98-17): 2.19
- Stasis free drug AUC0-168 h/MIC (C. albicans; 98-17): 15.35
- Stasis total drug AUC0-168 h/MIC (C. albicans; 98-17): 1918.43
- 1 log kill dose (C. albicans; 98-17, single IP dose, 168 h): 2.73 mg/kg
- Static dose (C. albicans; 98-17, single IP dose, 168 h): 1.34 mg/kg
- 1 log kill 24 h Ave Free drug AUC/MIC (C. albicans; 98-210): 6.72
- 1 log kill free drug AUC0-168 h/MIC (C. albicans; 98-210): 47.01
- 1 log kill total drug AUC0-168 h/MIC (C. albicans; 98-210): 5875.95
- Stasis 24 h Ave free drug AUC/MIC (C. albicans; 98-210): 3.70
- Stasis free drug AUC0-168 h/MIC (C. albicans; 98-210): 25.93
- Stasis total drug AUC0-168 h/MIC (C. albicans; 98-210): 3241.65
- 1 log kill dose (C. albicans; 98-210, single IP dose, 168 h): 2.28 mg/kg
- Static dose (C. albicans; 98-210, single IP dose, 168 h): 1.06 mg/kg
- 1 log kill 24 h Ave Free drug AUC/MIC (C. albicans; 580): 3.05
- 1 log kill free drug AUC0-168 h/MIC (C. albicans; 580): 21.34
- 1 log kill total drug AUC0-168 h/MIC (C. albicans; 580): 2667.21
- Stasis 24 h Ave free drug AUC/MIC (C. albicans; 580): 2.02
- Stasis free drug AUC0-168 h/MIC (C. albicans; 580): 14.15
- Stasis total drug AUC0-168 h/MIC (C. albicans; 580): 1769.30
- 1 log kill dose (C. albicans; 580, single IP dose, 168 h): 2.03 mg/kg
- Static dose (C. albicans; 580, single IP dose, 168 h): 1.20 mg/kg
- 1 log kill 24 h Ave Free drug AUC/MIC (C. albicans; K-1): 6.86
- 1 log kill free drug AUC0-168 h/MIC (C. albicans; K-1): 48.05
- 1 log kill total drug AUC0-168 h/MIC (C. albicans; K-1): 6005.95
- Stasis 24 h Ave free drug AUC/MIC (C. albicans; K-1): 3.65
- Stasis free drug AUC0-168 h/MIC (C. albicans; K-1): 25.58
- Stasis total drug AUC0-168 h/MIC (C. albicans; K-1): 3197.16
- 1 log kill dose (C. albicans; K-1, single IP dose, 168 h): 5.26 mg/kg
- Static dose (C. albicans; K-1, single IP dose, 168 h): 2.52 mg/kg
- 1 log kill 24 h Ave Free drug AUC/MIC (C. albicans; Mean of 4 C. albicans strains): 5.14
- 1 log kill dose (C. albicans; Mean of 4 C. albicans strains): 3.08 mg/kg
- 1 log kill free drug AUC0-168 h/MIC (C. albicans; Mean of 4 C. albicans strains): 35.97
- 1 log kill total drug AUC0-168 h/MIC (C. albicans; Mean of 4 C. albicans strains): 4495.63
- Stasis 24 h Ave free drug AUC/MIC (C. albicans; Mean of 4 C. albicans strains): 2.89
- Stasis free drug AUC0-168 h/MIC (C. albicans; Mean of 4 C. albicans strains): 20.25
- Stasis total drug AUC0-168 h/MIC (C. albicans; Mean of 4 C. albicans strains): 2531.64
- Static dose (C. albicans; Mean of 4 C. albicans strains): 1.53 mg/kg
- 1 log kill 24 h Ave Free drug AUC/MIC (C. albicans; [5]): 5.32
- 1 log kill dose (C. albicans; [5]): 2.51 mg/kg
- 1 log kill free drug AUC0-168 h/MIC (C. albicans; [5]): 37.24
- 1 log kill total drug AUC0-168 h/MIC (C. albicans; [5]): 4654.68
- Stasis 24 h Ave free drug AUC/MIC (C. albicans; [5]): 2.92
- Stasis free drug AUC0-168 h/MIC (C. albicans; [5]): 20.5 and 20.46
- Stasis total drug AUC0-168 h/MIC (C. albicans; [5]): 2557.79
- Static dose (C. albicans; [5]): 1.27 mg/kg
- kill at high doses (C. albicans; a number of strains, kidney burden, 168 h): > 2 log10
- MEC90 [3]: 0.015 µg/mL
- MIC90 [4]: 0.06 µg/mL
